Test results: PubChem BioAssay AID330 (DTP/NCI, 2004)
Several values for one entry are separate records, joined by “and”; a condition that tells them apart may be missing. Equal entries are not always repeated. Inconclusive results and toxic doses are left out.

System: P388 leukemia ip, CD2F1 mice, survival T/C
Assay: NCI In Vivo Anticancer Drug Screen. Data for tumor model P388 Leukemia (intraperitoneal) in CD2F1 (CDF1) mice
Details: endpoint: median survival time, higher = longer survival
Summary of the method: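 Mice carrying the transplanted tumor received test compound or vehicle. Survival was recorded in each group, and the value is the treated-group measurement divided by that of the vehicle-treated control group.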

[1] = dose: 50.0 mg/kg/injection, schedule: Q01DX005 (ip), vehicle: Klucel (hydroxypropylcellulose) (HPC)
[2] = dose: 100.0 mg/kg/injection, schedule: Q01DX005 (ip), vehicle: Klucel (hydroxypropylcellulose) (HPC)
[3] = dose: 200.0 mg/kg/injection, schedule: Q01DX005 (ip), vehicle: Klucel (hydroxypropylcellulose) (HPC)
[4] = dose: 50.0 mg/kg/injection, schedule: Q01DX005 (ip), vehicle: saline with Tween-80
[5] = dose: 100.0 mg/kg/injection, schedule: Q01DX005 (ip), vehicle: saline with Tween-80
[6] = dose: 12.5 mg/kg/injection, schedule: Q01DX009 (ip), vehicle: Klucel (hydroxypropylcellulose) (HPC)
[7] = dose: 25.0 mg/kg/injection, schedule: Q01DX009 (ip), vehicle: Klucel (hydroxypropylcellulose) (HPC)
[8] = dose: 200.0 mg/kg/injection, schedule: Q01DX005 (ip), vehicle: saline with Tween-80
[9] = dose: 60.0 mg/kg/injection, schedule: Q01DX005 (ip), vehicle: saline with Tween-80
[10] = dose: 120.0 mg/kg/injection, schedule: Q01DX005 (ip), vehicle: saline with Tween-80
[11] = dose: 240.0 mg/kg/injection, schedule: Q01DX005 (ip), vehicle: saline with Tween-80
[12] = dose: 60.0 mg/kg/injection, schedule: Q01DX005 (ip), vehicle: Klucel (hydroxypropylcellulose) (HPC)
[13] = dose: 120.0 mg/kg/injection, schedule: Q01DX005 (ip), vehicle: Klucel (hydroxypropylcellulose) (HPC)
[14] = dose: 240.0 mg/kg/injection, schedule: Q01DX005 (ip), vehicle: Klucel (hydroxypropylcellulose) (HPC)
[15] = dose: 100.0 mg/kg/injection, schedule: Q04DX003 (ip), vehicle: Klucel (hydroxypropylcellulose) (HPC)
[16] = dose: 200.0 mg/kg/injection, schedule: Q04DX003 (ip), vehicle: Klucel (hydroxypropylcellulose) (HPC)
[17] = dose: 400.0 mg/kg/injection, schedule: Q04DX003 (ip), vehicle: Klucel (hydroxypropylcellulose) (HPC)
[18] = dose: 50.0 mg/kg/injection, schedule: Q01DX009 (ip), vehicle: Klucel (hydroxypropylcellulose) (HPC)
[19] = dose: 100.0 mg/kg/injection, schedule: Q01DX009 (ip), vehicle: Klucel (hydroxypropylcellulose) (HPC)

For `NC(=O)c1n[nH]c(=S)[nH]c1=O`, the T/C [1] was 102 % of control, the T/C [2] was 91 % of control and the T/C [3] was 96 % of control.
For `NC(CS(=O)Cc1ccccc1)C(=O)O` (stereo not given), the T/C [4] was 95 % of control and the T/C [5] was 102 % of control.
With `CC/C(=C(/O)c1ccccc1)c1nc2ccc(Cl)cc2[nH]c1=O` the T/C (dose: 60.0 mg/kg/injection, schedule: Q01DX005 (ip), vehicle: Klucel + Tween-80) was 100 % of control, the T/C (dose: 120.0 mg/kg/injection, schedule: Q01DX005 (ip), vehicle: Klucel + Tween-80) was 93 % of control and the T/C (dose: 240.0 mg/kg/injection, schedule: Q01DX005 (ip), vehicle: Klucel + Tween-80) was 98 % of control.
For `O=P(c1ccccc1)(c1ccccc1)c1ccccc1.O=P(c1ccccc1)(c1ccccc1)c1ccccc1.O=S(=O)(O)O.[Ni]`, the T/C (dose: 6.25 mg/kg/injection, schedule: Q01DX009 (ip), vehicle: Klucel (hydroxypropylcellulose) (HPC)) was 99 % of control, the T/C [6] was 111 % of control and the T/C [7] was 107 % of control.
With `CC(C)CC(NC(=O)CN)C(=O)O` (stereo not given) the T/C (dose: 25.0 mg/kg/injection, schedule: Q01DX005 (ip), vehicle: saline) was 103 % of control, the T/C (dose: 25.0 mg/kg/injection, schedule: Q01DX009 (ip), vehicle: saline with Tween-80) was 95 % of control and the T/C (dose: 50.0 mg/kg/injection, schedule: Q01DX005 (ip), vehicle: saline) was 101 % of control. For the same molecule, the T/C (dose: 50.0 mg/kg/injection, schedule: Q01DX009 (ip), vehicle: saline with Tween-80) was 89 % of control, the T/C (dose: 100.0 mg/kg/injection, schedule: Q01DX005 (ip), vehicle: saline) was 103 % of control and the T/C (dose: 100.0 mg/kg/injection, schedule: Q01DX009 (ip), vehicle: saline with Tween-80) was 88 % of control. The T/C (dose: 200.0 mg/kg/injection, schedule: Q01DX005 (ip), vehicle: saline) was 99 % of control and the T/C (dose: 200.0 mg/kg/injection, schedule: Q01DX009 (ip), vehicle: saline with Tween-80) was 91 % of control.
With `C1CC2CC3CCCCN3COC2C1` (stereo not given) the T/C (dose: 100.0 mg/kg/injection, schedule: Q04DX003 (ip), vehicle: saline) was 102 % of control and the T/C (dose: 200.0 mg/kg/injection, schedule: Q04DX003 (ip), vehicle: saline) was 118 % of control.
In the case of `C=CCNC(=S)N/N=C(\C)c1cccc(C)n1`, the T/C [4] is reported as 100 % of control, the T/C [5] is reported as 100 % of control and the T/C [8] is reported as 112 % of control.
For `OCC1CCCC1CO` (stereo not given), the T/C [4] was 106 % of control and 101 % of control, the T/C [5] was 105 % of control and 101 % of control and the T/C [8] was 100 % of control and 114 % of control.
For `COc1c2c(c(OC)c3c1c(=O)c1ccccc1n3C)OCO2`, the T/C [4] was 104 % of control, the T/C [5] was 104 % of control and the T/C [8] was 100 % of control.
In the case of `O=C1CCCC2C3CCC[N+]4([O-])CCCC(O)(CN12)C34` (stereo not given), the T/C (dose: 6.2 mg/kg/injection, schedule: Q01DX007 (ip), vehicle: carboxymethylcellulose (CMC)) is reported as 100 % of control, the T/C (dose: 12.5 mg/kg/injection, schedule: Q01DX007 (ip), vehicle: carboxymethylcellulose (CMC)) is reported as 91 % of control and the T/C (dose: 25.0 mg/kg/injection, schedule: Q01DX007 (ip), vehicle: carboxymethylcellulose (CMC)) is reported as 91 % of control.
In the case of `CCOc1c(N=Nc2ccc(C)cc2)c(C)nn1C(N)=S`, the T/C (dose: 15.0 mg/kg/injection, schedule: Q01DX005 (ip), vehicle: Klucel + Tween-80) is reported as 103 % of control and the T/C (dose: 30.0 mg/kg/injection, schedule: Q01DX005 (ip), vehicle: Klucel + Tween-80) is reported as 105 % of control.
In the case of `CNC(=O)OCc1c(COC(=O)NC)c2n(c1C)CS(=O)(=O)C2`, the T/C (dose: 25.0 mg/kg/injection, schedule: Q01DX005 (ip), vehicle: saline with Tween-80) is reported as 122 % of control and the T/C [5] is reported as 204 % of control and 211 % of control.
In the case of `O=C(CCCCC(=O)N/N=C/c1ccco1)N/N=C/c1ccco1`, the T/C [9] is reported as 99 % of control, the T/C [10] is reported as 94 % of control and the T/C [11] is reported as 91 % of control.
With `C1CCC2OCCOCCOC3CCCCC3OCCOCCOC2C1` (stereo not given) the T/C [6] was 95 % of control and 96 % of control and the T/C [7] was 114 % of control and 91 % of control.
For `CCCCCCCCCCCCCCCC(=O)NCCCCC(N)C(=O)O` (stereo not given), the T/C (dose: 50.0 mg/kg/injection, schedule: Q01DX009 (ip), vehicle: suspension in saline) was 94 % of control, the T/C (dose: 100.0 mg/kg/injection, schedule: Q01DX009 (ip), vehicle: suspension in saline) was 98 % of control and the T/C (dose: 200.0 mg/kg/injection, schedule: Q01DX009 (ip), vehicle: suspension in saline) was 96 % of control.
In the case of `CC(/C(=N/O)c1ccccc1)N1C(=O)c2ccccc2C1=O` (stereo not given), the T/C [12] is reported as 100 % of control, the T/C [13] is reported as 99 % of control and the T/C [14] is reported as 96 % of control.
In the case of `CN(C)CCCC1(O)c2ccccc2Sc2cc(Cl)ccc21` (stereo not given), the T/C [9] is reported as 100 % of control and the T/C [10] is reported as 96 % of control.
With `Clc1ccccc1CN1COc2c(ccc3cccnc23)C1` the T/C [15] was 103 % of control, the T/C [16] was 100 % of control and the T/C [17] was 100 % of control.
`N#CCc1ccccc1C(C#N)C(=O)CCC(=O)C(C#N)c1ccccc1CC#N` (stereo not given) was tested, and the T/C [9] was 104 % of control, the T/C [10] was 103 % of control and the T/C [11] was 102 % of control.
In the case of `CCCC(=O)C(=O)c1ccc(O)cc1O`, the T/C [18] is reported as 108 % of control, the T/C [19] is reported as 116 % of control and the T/C (dose: 200.0 mg/kg/injection, schedule: Q01DX009 (ip), vehicle: Klucel (hydroxypropylcellulose) (HPC)) is reported as 119 % of control.
With `CC(C)(C)SSC(=S)C(c1ccccc1)c1ccccc1` the T/C (dose: 50.0 mg/kg/injection, schedule: Q01DX005 (ip), vehicle: saline + Tween-80 + alcohol) was 105 % of control, the T/C (dose: 100.0 mg/kg/injection, schedule: Q01DX005 (ip), vehicle: saline + Tween-80 + alcohol) was 107 % of control and the T/C (dose: 200.0 mg/kg/injection, schedule: Q01DX005 (ip), vehicle: saline + Tween-80 + alcohol) was 96 % of control.
With `CCCCCCOC(=O)C(N)Cc1ccc(N(CCCl)CCCl)cc1` (stereo not given) the T/C (dose: 1.28 mg/kg/injection, schedule: Q01DX009 (ip), vehicle: saline) was 245 % of control, the T/C (dose: 2.55 mg/kg/injection, schedule: Q01DX009 (ip), vehicle: saline) was 322 % of control and the T/C (dose: 3.2 mg/kg/injection, schedule: Q03HX008 (ip), vehicle: saline) was 165 % of control. The T/C (dose: 5.1 mg/kg/injection, schedule: Q01DX009 (ip), vehicle: saline) was 118 % of control, the T/C (dose: 6.4 mg/kg/injection, schedule: Q03HX008 (ip), vehicle: saline) was 180 % of control and the T/C (dose: 10.2 mg/kg/injection, schedule: Q01DX009 (ip), vehicle: saline) was 86 % of control. The T/C (dose: 12.8 mg/kg/injection, schedule: Q03HX008 (ip), vehicle: saline) was 295 % of control, the T/C (dose: 25.5 mg/kg/injection, schedule: Q03HX008 (ip), vehicle: saline) was 600 % of control and the T/C (dose: 51.0 mg/kg/injection, schedule: Q03HX008 (ip), vehicle: saline) was 600 % of control.
`CC(=O)NS(=O)(=O)c1ccc(C)cc1` was tested, and the T/C [15] was 106 % of control, the T/C [16] was 107 % of control and the T/C [17] was 100 % of control.
For `CC(NNC(=S)N1CCCCCC1)c1ccc2ccccc2n1` (stereo not given), the T/C [1] was 111 % of control, the T/C [2] was 110 % of control and 122 % of control and 95 % of control and the T/C [3] was 112 % of control and 113 % of control.
For `COc1ccc(C(C)=O)cc1CSC(=S)N1CCSCC1`, the T/C (dose: 15.0 mg/kg/injection, schedule: Q01DX005 (ip), vehicle: saline with Tween-80) was 104 % of control, the T/C (dose: 30.0 mg/kg/injection, schedule: Q01DX005 (ip), vehicle: saline with Tween-80) was 99 % of control and the T/C [9] was 90 % of control and 92 % of control. The T/C [11] was 88 % of control.
With `COc1cccc(C2c3cc4c(cc3OC(C)(O)C2C)OCO4)c1O` (stereo not given) the T/C [12] was 96 % of control, the T/C [13] was 98 % of control and the T/C [14] was 93 % of control.
In the case of `COc1cccc(C)c1C(O)CC1CCCN1` (stereo not given), the T/C [18] is reported as 106 % of control and the T/C [19] is reported as 102 % of control.
With `O=c1c2[nH]c3ccccc3sc=2c(=O)n1-c1ccc(Cl)cc1` the T/C [9] was 103 % of control, the T/C [10] was 98 % of control and the T/C [11] was 94 % of control.
In the case of `COC(=O)/C=C/C(=O)NC(O)C(Cl)(Cl)Cl` (stereo not given), the T/C [4] is reported as 102 % of control, the T/C [5] is reported as 107 % of control and the T/C [8] is reported as 102 % of control.
`CC1=CC(=O)C2OC(=O)CC3C=CCC1C32C` (stereo not given) was tested, and the T/C (dose: 25.0 mg/kg/injection, schedule: Q01DX005 (ip), vehicle: Klucel (hydroxypropylcellulose) (HPC)) was 99 % of control, the T/C [1] was 103 % of control and the T/C [2] was 103 % of control.
